Measurements from patent US6495603B1, “Anti-inflammatory eye drop” (Wakamoto Pharmaceutical Co., Ltd., priority 1998, dated 2002).

Assays:
[1] = test system: Chang human conjunctival cell strains (ATCC CCL-20.2); experiment: Cell toxicity, viable cell number by β-hexosaminidase activity, conjunctival cells; type: cell-based; settings: concentration for survival rate of 50%
Method: (§1) There were used SV40 immortalized human corneal epithelial cell strains (Araki-Sasaki et al., IOVS, 1995, 36:614-621) as the corneal cells and Chang human conjunctival cell strains (ATCC CCL-20.2) as the conjunctival cells.
(§2) These cells were cultured in 96-well plate to a confluent of 30 to 50% and then each test substance stepwise diluted with the culture medium was added to the foregoing culture medium to thus carry out cultivation at 37° C. After completion of the cultivation, the plate was washed with PBS(−) and the number of residual cells was determined in terms of the β-hexosaminidase activity.
(§3) A group treated with only the solvent, which was used for dissolving the test substance was defined to be a negative control, the viable cell number observed for the control was assumed to be 100%, a dose-correlation curve was prepared on the basis of the viable cell number observed at each concentration of test substance and the concentration of each test substance required for achieving the survival rate of 50% (EC50) was determined from the curve and it was defined to be the toxicity value thereof.

[2] = test system: SV40 immortalized human corneal epithelial cell strains; experiment: Cell toxicity, viable cell number by β-hexosaminidase activity, corneal epithelial cells; type: cell-based; settings: concentration for survival rate of 50%
Method: as §1, §2, §3

[3] = test system: Japanese white male rabbits; experiment: Uveitis induced by LPS in rabbits (aqueous humor PGE2 and protein); type: in vivo, rabbit; settings: for Inhibition Rate (PGE2 Content) / Inhibition Rate (Protein Content): LPS uveitis, vs control
Method: In this Test Example, groups of Japanese white male rabbits each having a body weight ranging from 1.7 to 2.4 kg were used, wherein each group consisted of 12 to 16 eyes.
The lipopolysaccharide (LPS) (055: B5 type, available from Sigma Company) derived from E. coli was administered to these rabbits through the auricular veins in a dose of 1.25 μg/kg to thus induce uveitis. After 4 hours from the administration of LPS, the rabbits were killed by anesthetization with an excess of pentobarbital sodium (available from Tokyo Chemical Industry Co., Ltd.) and the anterior chamber fluid was collected.
The PGE2 concentration and the amount of proteins present in the collected aqueous humor were determined according to the same methods used in Example 1.
In this respect, each test substance was dropped in the both eyes of these animals prior to one hour from the administration of LPS at a dose of about 60 μL/eye. […]

Japanese white rabbits = experiment: Inflammation in anterior of white rabbit after anterior chamber puncture (secondary aqueous humor PGE2 and protein); type: in vivo; settings: for Inhibition Rate (PGE2 Content) / Inhibition Rate (Protein Content): anterior chamber puncture, vs control; for PGE2 Content / Protein Content: secondary aqueous humor after anterior chamber puncture
Method: In this Test Example, there were used Japanese white rabbits (available from Japan Medical Animal Source Laboratory) each having a body weight ranging from 1.8 to 2.4 kg and they were divided into groups each consisting of 6 to 7 animals.
After administration of 250 U/kg of heparin (available from Takeda Chemical Industries, Ltd.) to these rabbits through the ear veins thereof, a test substance was dropped in the both eyes in an amount of about 60 μl. After 45 minutes from the dropping of the substance in the eyes, these animals were locally anesthetized with benoxil eye drop (available from Santen Pharmaceutical Co., Ltd.) and then whole of the anterior chamber fluid was collected using a 27G injection needle. This anterior chamber fluid was defined to be a primary aqueous humor. After 90 minutes from the collection of the aqueous humor, the rabbits were killed by anesthetization with an excess of pentobarbital sodium and the aqueous humor was again collected. This anterior chamber fluid was defined to be a secondary aqueous humor.
The concentration of prostaglandin E2 (hereunder referred to as “PGE2”) and the amount of proteins present in the collected secondary aqueous humor were determined and they were used as indications of inflammation. After pre-treatment of 100 μl of the aqueous humor using a Bond Elute C18 column, the concentration of PGE2 was determined using Biotrack PGE2 EIA system (available from Amersham Company). On the other hand, the amount of proteins was determined according to the Lowry method using bovine serum albumin (available from Nakarai Co., Ltd.) as a reference protein.
Etodolac as a test substance was dissolved in castor oil specified in the pharmacopoeia to concentrations of 0.5% and 5%. Meloxicam was diluted with physiological saline prior to use.

[4] = 24 h, exposure 24 hours, Table 4
[5] = 24 h, exposure time 24 hr, Table 5
[6] = 48 h, exposure time 48 hr, Table 5
[7] = aqueous humor 4 hours after LPS, 0.1% eye drop one hour before LPS
[8] = aqueous humor 4 hours after LPS, 0.5% eye drop one hour before LPS
[9] = aqueous humor 4 hours after LPS, 1.0% eye drop one hour before LPS

Compound: O=C(O)Cc1ccccc1Nc1c(Cl)cccc1Cl [Diclofenac Sodium]
- EC50 [1, 4]: 130 µM
- EC50 [1, 5]: 230 µM
- EC50 [1, 6]: 220 µM
- EC50 [2, 4]: 300 µM
- EC50 [2, 5]: 630 µM
- EC50 [2, 6]: 230 µM

Compound: Cc1cnc(NC(=O)C2=C(O)c3ccccc3S(=O)(=O)N2C)s1 [Meloxicam, 4-hydroxy-2-methyl-N-(5-methyl-2-thiazolyl)-2H-1,2-benzo-thiazine-3-carboxamide 1,1-dioxide]
- Inhibition Rate (PGE2 Content) ([3]; 0.1% eye drop): 55.9%
- Inhibition Rate (Protein Content) ([3]; 0.1% eye drop): 33.8%
- Inhibition Rate (PGE2 Content) ([3]; 0.5% eye drop): 68.8%
- Inhibition Rate (PGE2 Content) ([3]; 1.0% eye drop): 63.1%
- Inhibition Rate (Protein Content) ([3]; 1.0% eye drop): 49.4%
- PGE2 Content [3, 7]: 1102.8 pg/mL
- Protein Content [3, 7]: 16.0 ± 1.9 mg/mL
- PGE2 Content [3, 8]: 780.9 pg/mL
- Protein Content [3, 8]: 14.3 ± 2.6 mg/mL
- PGE2 Content [3, 9]: 922.8 pg/mL
- Protein Content [3, 9]: 12.2 ± 1.8 mg/mL
- EC50 [1, 5]: 970 µM
- EC50 [1, 6]: 380 µM
- EC50 [2, 5]: > 1000 µM
- EC50 [2, 6]: 840 µM
- Inhibition Rate (PGE2 Content) (Japanese white rabbits; 0.1% eye drop): 75.0%
- Inhibition Rate (Protein Content) (Japanese white rabbits; 0.1% eye drop): 29.3%
- Inhibition Rate (PGE2 Content) (Japanese white rabbits; 0.5% eye drop): 90.7%
- Inhibition Rate (Protein Content) (Japanese white rabbits; 0.5% eye drop): 52.2%
- Inhibition Rate (PGE2 Content) (Japanese white rabbits; 1.0% eye drop): 94.2%
- Inhibition Rate (Protein Content) (Japanese white rabbits; 1.0% eye drop): 47.6%
- PGE2 Content (Japanese white rabbits; 0.1% eye drop): 680.6 pg/mL
- Protein Content (Japanese white rabbits; 0.1% eye drop, about 60 μl both eyes): 16.2 ± 1.9 mg/mL
- PGE2 Content (Japanese white rabbits; 0.5% eye drop): 253.5 pg/mL
- Protein Content (Japanese white rabbits; 0.5% eye drop): 11.0 ± 1.5 mg/mL
- PGE2 Content (Japanese white rabbits; 1.0% eye drop): 158.3 pg/mL
- Protein Content (Japanese white rabbits; 1.0% eye drop): 12.0 ± 2.1 mg/mL

Compound: COc1ccc2c(c1)c(CC(=O)O)c(C)n2C(=O)c1ccc(Cl)cc1 [Indometacin]
- EC50 [1, 4]: 370 µM
- EC50 [2, 4]: 570 µM

Compound: CCc1cccc2c3c([nH]c12)C(CC)(CC(=O)O)OCC3 (stereo not shown) [Etodolac, 1,8-diethyl-1,3,4,9-tetrahydropyrano [3,4-b] indole-1-acetic acid]
- EC50 [1, 4]: 800 µM
- EC50 [2, 4]: 1000 µM
- Effect on the PGE2 content increased by the anterior chamber puncture (Japanese white rabbits; aqueous humor, 0.5% and 5% in castor oil, FIG. 1): inhibited the increase
- Effect on the protein content increased by the anterior chamber puncture (Japanese white rabbits; aqueous humor, 0.5% and 5% in castor oil, FIG. 2): inhibited the increase

Compound: CS(=O)(=O)Nc1ccc([N+](=O)[O-])cc1OC1CCCCC1 [NS-398, N-(2-(cyclohexyloxy)-4-nitrophenyl) methanesulfonamide]
- Inhibition Rate (PGE2 Content) ([3]; 0.5% in castor oil): 65.9%
- Inhibition Rate (PGE2 Content) ([3]; 5.0% in castor oil): 59.4%
- PGE2 Content ([3]; aqueous humor 4 hours after LPS 1.25 μg/kg, 0.5% in castor oil, dropped one hour before LPS): 4553 ± 118.6 pg/mL
- PGE2 Content ([3]; aqueous humor 4 hours after LPS 1.25 μg/kg, 5.0% in castor oil, dropped one hour before LPS): 542.8 ± 79.8 pg/mL
